Assay results reported in US20260327628A1, “AN RNA APTAMER THAT BINDS TO ASP7967 OR AN ANALOGUE THEREOF” (priority 2022, published 2026).
“Also recorded” adds a separate entry of the source.

Key:
[1] = molecular target: AC17-4 RNA aptamer; assay: Affinity measurement by SPR, AC17-4 immobilized chip; assay type: binding; conditions: for Kd: 25 °C; for affinity for AC17-4 (in words): ASP2905 versus ASP7967
Method: Affinity measurements of the aptamers with the ligands by SPR were performed as described by Chang et al.^53 with some modifications. Experiments were performed on Biacore T200 (Cytiva) at 25° C. For immobilization of the capture DNA (5′-/5AmMC6/[…]-3′ (SEQ ID NO: 32),/5AmMC6/: 5′ amino modifier C6, IDT), 1×HBS-N (10 mM HEPES, pH 7.4, 150 mM NaCl) was used as the running buffer. CM5 chip surface was washed by two injections of NaOH/NaCl solution (25 mM NaOH, 1 M NaCl) at 20 μl min^−1 for 30 s. Next, a solution containing 200 mM 1-ethyl-3-(3-dimethylaminopropyl) carbodiimide hydrochloride (EDC) and 50 mM N-hydroxysuccinimide (NHS) was injected into all flow cells at 10 μl min^−1 for 7 min to activate the surface carboxylic acid groups. Then, the capture DNA (20 μM) in 10 mM HEPES-KOH buffer (pH 7.5) supplemented with 0.6 mM cetyltrimethylammonium bromide was injected at 5 μl min^−1 for 10 min. The unreacted activated carboxylic acid groups were quenched by an injection of 1 M ethanolamine-HCl (pH 8.5) for 7 min at 10 μl min^−1. To remove the noncovalently adsorbed DNA on the chip surface, NaOH/NaCl solution was injected two times at 20 μl min^−1 for 30 s. The immobilized DNA levels were 2846±284 RU.
The dsDNA templates for in vitro transcription of the aptamers were prepared by primer extension of two oligo DNAs using Q5 High-Fidelity DNA Polymerase (NEB). AC17-4 RNA aptamer and its mutants containing 3′ poly(A) tail (Table 4) were synthesized by in vitro transcription using ScriptMAX Thermo T7 Transcription Kit (TOYOBO) according to the manufacturer's instructions. The reaction products were treated with 2 U TURBO DNase (Thermo Fisher Scientific) for 30 min at 37° C. and purified with RNA Clean & Concentrator-25 Kit (Zymo Research). RNA concentrations were determined by absorbance at 260 nm according to OligoCalc^54. RNA solutions (~3.6 μM) were prepared in water and denatured by heating at 80° C. for 3 min. After cooling at room temperature for few minutes, the RNA solutions were diluted with an equal volume of high salt buffer (10 mM Tris-HCl, pH 7.5, 1 M NaCl, 1 mM EDTA). Stock solutions of ASP2905 and ASP7967 in DMSO (20 mM, fumaric acid adduct, Astellas Pharma, Inc.) were prepared based on the weight. […] An aptamer ligand was injected at 30 μl min^−1 for 120 s to monitor association, and then the dissociation kinetics was monitored for 180 s in the SPR running buffer. […] The raw data were analysed by Biacore T200 Evaluation Software 1.0 using 1:1 Langmuir interaction model. […] Dissociation constant (KD) was determined from the ratio of the association and the dissociation rate constants (KD=koff/kon) or by equilibrium analysis. […]

[2] = system: HEK293 cells; assay: MTT (cell proliferation) assay; assay type: cell-based; conditions: up to 10 μM, 18 h
Method: MTT assay was performed using MTT Cell Count Kit (Nacalai Tesque). HEK293 cells were trypsinized, diluted to 2.4×10^5 cells ml^−1 and 100 μl per well were seeded onto a 96-well plate. The cells were cultured for 24 h at 37° C. under 5% CO2. The medium was replaced with fresh medium (DMEM-FBS with 0.1% (v/v) DMSO) with 0, 2, 5, or 10 μM of ASP2905 or ASP7967. The cells were cultured for additional 18 h at 37° C. under 5% CO2. Subsequently, 10 μl of MTT solution was added to each well, and the cells were incubated for 3 h at 37° C. under 5% CO2. Next, 100 μl of the Solubilization Solution was added to each well. To dissolve the precipitated formazan, the plate was incubated for 2 h at 37° C. Absorbance at 570 nm (reference wavelength: 700 nm) was measured by Infinite M1000 PRO microplate reader (Tecan). The reported values are averages of four replicate wells. The assay was repeated three times to ensure reproducibility.

[3] = system: potassium channel Kv12.2 encoded by the Kcnh3/BEC1 gene; conditions: cited from earlier work

| Compound | Kd [1] | affinity for AC17-4 (in words) [1] | effect on cell proliferation / cellular toxicity [2] | effect on cell proliferation / cellular toxicity ([2]; listed as ASP2095) | inhibition of Kv12.2 (KCNH3) in words [3] |
| --- | --- | --- | --- | --- | --- |
| Fc1ccc(Nc2nc(NCc3ncccn3)nc(Nc3ccccc3)n2)cc1 [ASP2905, reference compound] | 7.7 nM | comparable affinity | not significantly affected | No cellular toxicity up to 10 μM was observed; also recorded: not cytotoxic | potent and selective inhibitor; also recorded: known inhibitor |
| Fc1ccc(Nc2nc(NCc3ncccn3)nc(Nc3ccc(F)cc3)n2)cc1 [ASP7967] | 12 nM | comparable affinity | not significantly affected; also recorded: No cellular toxicity up to 10 μM was observed; also recorded: not cytotoxic |  |  |
